Source: PubChem BioAssay AID330 (DTP/NCI, 2004)
Where “and” joins values, the source holds several entries; their conditions need not be identical. Identical values can stand only once. Toxic doses and inconclusive results are not listed. Rule for the calls: active = survival T/C of 150% or more; inactive = T/C below 125% in these data.

Test system: P388 leukemia ip, CD2F1 mice, survival T/C
Experiment: NCI In Vivo Anticancer Drug Screen. Data for tumor model P388 Leukemia (intraperitoneal) in CD2F1 (CDF1) mice
Conditions: endpoint: median survival time, higher = longer survival
In short: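 Mice carrying the transplanted tumor received test compound or vehicle. Survival was recorded in each group, and the value is the treated-group measurement divided by that of the vehicle-treated control group.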

[1] = dose: 50.0 mg/kg/injection, schedule: Q01DX009 (ip), vehicle: saline with Tween-80
[2] = dose: 100.0 mg/kg/injection, schedule: Q01DX009 (ip), vehicle: saline with Tween-80
[3] = dose: 200.0 mg/kg/injection, schedule: Q01DX009 (ip), vehicle: saline with Tween-80
[4] = dose: 50.0 mg/kg/injection, schedule: Q01DX005 (ip), vehicle: Klucel (hydroxypropylcellulose) (HPC)
[5] = dose: 100.0 mg/kg/injection, schedule: Q01DX005 (ip), vehicle: Klucel (hydroxypropylcellulose) (HPC)
[6] = dose: 200.0 mg/kg/injection, schedule: Q01DX005 (ip), vehicle: Klucel (hydroxypropylcellulose) (HPC)
[7] = dose: 50.0 mg/kg/injection, schedule: Q01DX005 (ip), vehicle: saline with Tween-80
[8] = dose: 100.0 mg/kg/injection, schedule: Q01DX005 (ip), vehicle: saline with Tween-80
[9] = dose: 200.0 mg/kg/injection, schedule: Q01DX005 (ip), vehicle: saline with Tween-80
[10] = dose: 6.25 mg/kg/injection, schedule: Q01DX009 (ip), vehicle: water
[11] = dose: 12.5 mg/kg/injection, schedule: Q01DX009 (ip), vehicle: water
[12] = dose: 25.0 mg/kg/injection, schedule: Q01DX009 (ip), vehicle: water
[13] = dose: 50.0 mg/kg/injection, schedule: Q01DX009 (ip), vehicle: water
[14] = dose: 100.0 mg/kg/injection, schedule: Q01DX009 (ip), vehicle: water
[15] = dose: 60.0 mg/kg/injection, schedule: Q01DX005 (ip), vehicle: saline with Tween-80
[16] = dose: 120.0 mg/kg/injection, schedule: Q01DX005 (ip), vehicle: saline with Tween-80
[17] = dose: 240.0 mg/kg/injection, schedule: Q01DX005 (ip), vehicle: saline with Tween-80
[18] = dose: 25.0 mg/kg/injection, schedule: Q01DX009 (ip), vehicle: distilled water + Tween-80
[19] = dose: 50.0 mg/kg/injection, schedule: Q01DX009 (ip), vehicle: distilled water + Tween-80
[20] = dose: 100.0 mg/kg/injection, schedule: Q01DX009 (ip), vehicle: distilled water + Tween-80

Measured: T/C

Clc1ccc(SSN2CCCCC2)cc1
inactive: dose: 50.0 mg/kg/injection, schedule: Q01DX009 (ip), vehicle: saline 92 % of control | dose: 100.0 mg/kg/injection, schedule: Q01DX009 (ip), vehicle: saline 97 % of control | dose: 200.0 mg/kg/injection, schedule: Q01DX009 (ip), vehicle: saline 96 % of control

NS(=O)(=O)c1ccc(NC(=S)S)cc1
inactive: dose: 50.0 mg/kg/injection, schedule: Q01DX009 (ip), vehicle: Klucel (hydroxypropylcellulose) (HPC) 107 % of control | dose: 100.0 mg/kg/injection, schedule: Q01DX009 (ip), vehicle: Klucel (hydroxypropylcellulose) (HPC) 107 % of control | dose: 200.0 mg/kg/injection, schedule: Q01DX009 (ip), vehicle: Klucel (hydroxypropylcellulose) (HPC) 91 % of control

O=C1NN=C2CCCCCCCCCCC12 (stereo not given)
inactive: [1] 96 % of control | [2] 89 % of control | [3] 89 % of control

Cc1nc(Nc2ccc(F)cc2)c2c(C)c(Cc3ccccc3)[nH]c2n1
inactive: [4] 88 % of control | [5] 89 % of control | [6] 94 % of control

CC1c2ccccc2NC(=O)N1N1CCOCC1 (stereo not given)
inactive: [4] 96 % of control | [5] 93 % of control | [6] 97 % of control

CC(C)(C#N)Nc1ccccc1
inactive: dose: 3.13 mg/kg/injection, schedule: Q04DX003 (ip), vehicle: saline with Tween-80 87 % of control | dose: 6.25 mg/kg/injection, schedule: Q04DX003 (ip), vehicle: saline with Tween-80 100 % of control and 95 % of control | dose: 12.5 mg/kg/injection, schedule: Q04DX003 (ip), vehicle: saline with Tween-80 100 % of control | dose: 25.0 mg/kg/injection, schedule: Q04DX003 (ip), vehicle: saline with Tween-80 100 % of control

COc1cccc(C=Nc2cc(C)ccn2)c1O.COc1cccc(C=Nc2cc(C)ccn2)c1O.[Cu]
inactive: dose: 6.25 mg/kg/injection, schedule: Q01DX005 (ip), vehicle: saline with Tween-80 99 % of control | dose: 12.5 mg/kg/injection, schedule: Q01DX005 (ip), vehicle: saline with Tween-80 100 % of control | dose: 25.0 mg/kg/injection, schedule: Q01DX005 (ip), vehicle: saline with Tween-80 96 % of control

CC(C)(C)N1CC1C#N (stereo not given)
inactive: dose: 3.13 mg/kg/injection, schedule: Q01DX009 (ip), vehicle: saline 111 % of control | dose: 6.25 mg/kg/injection, schedule: Q01DX009 (ip), vehicle: saline 104 % of control | dose: 12.5 mg/kg/injection, schedule: Q01DX009 (ip), vehicle: saline 101 % of control

Cc1cc(=O)oc2c(C)c3oc4ccncc4c3cc12
inactive: [4] 104 % of control | [5] 110 % of control | [6] 107 % of control

Cc1ccc(S(=O)(=O)/C(=N\O)c2ccc(Cl)cc2)cc1
inactive: [4] 96 % of control | [5] 107 % of control | [6] 95 % of control

CN(c1ncc(Cc2cnc(N(C)C3CCN(Cc4ccccc4)CC3)nc2)cn1)C1CCN(Cc2ccccc2)CC1
inactive: [7] 93 % of control | [8] 96 % of control | [9] 92 % of control

CCOC(=O)/C(=C\c1c(OC(C)=O)cn2c(C)cccc12)C(C)=O
inactive: dose: 100.0 mg/kg/injection, schedule: Q01DX001 (ip), vehicle: saline with Tween-80 98 % of control | dose: 200.0 mg/kg/injection, schedule: Q01DX001 (ip), vehicle: saline with Tween-80 94 % of control | dose: 400.0 mg/kg/injection, schedule: Q01DX001 (ip), vehicle: saline with Tween-80 94 % of control

CSc1nnc2nc3c4ccccc4c4ccccc4c3nn12
inactive: dose: 50.0 mg/kg/injection, schedule: Q04DX002 (ip), vehicle: suspension in saline 100 % of control | dose: 100.0 mg/kg/injection, schedule: Q04DX002 (ip), vehicle: suspension in saline 100 % of control | dose: 200.0 mg/kg/injection, schedule: Q04DX002 (ip), vehicle: suspension in saline 98 % of control

CCOC(C)n1c(C)nc2ccccc21 (stereo not given)
inactive: dose: 100.0 mg/kg/injection, schedule: Q04DX002 (ip), vehicle: saline 99 % of control | dose: 200.0 mg/kg/injection, schedule: Q04DX002 (ip), vehicle: saline 101 % of control | dose: 400.0 mg/kg/injection, schedule: Q04DX002 (ip), vehicle: saline 97 % of control

COc1ccc(CCNCCc2ccc(OC)c(OC)c2)cc1OC
inactive: [10] 96 % of control | [11] 108 % of control | [12] 100 % of control | [13] 100 % of control | [14] 90 % of control

CC(=O)C(=O)C1=C2CCCN2CCc2cc3c(cc21)OCO3
inactive: [10] 92 % of control | [11] 98 % of control | [12] 93 % of control | [13] 101 % of control | [14] 99 % of control

Cc1cc(C)cc(CSCc2c(CSCc3cc(C)cc(C)c3)c(CSCc3cc(C)cc(C)c3)c(CSCc3cc(C)cc(C)c3)c(CSCc3cc(C)cc(C)c3)c2CSCc2cc(C)cc(C)c2)c1
inactive: [1] 102 % of control | [2] 100 % of control | [3] 105 % of control

Cc1cc(-c2ccccc2)nc2nc3ccccc3n12
inactive: [15] 105 % of control | [16] 103 % of control | [17] 103 % of control

C/C=C/C(=O)Nc1cccc(OC(=O)NC(C)(C)C)c1
inactive: dose: 25.0 mg/kg/injection, schedule: Q01DX009 (ip), vehicle: saline with Tween-80 101 % of control | [1] 100 % of control | [2] 97 % of control

OCC1OC(C2N(c3ccccc3)CCN2c2ccccc2)C(O)C1O (stereo not given)
inactive: dose: 12.5 mg/kg/injection, schedule: Q01DX009 (ip), vehicle: distilled water + Tween-80 102 % of control | [18] 100 % of control | [19] 98 % of control | [20] 90 % of control | dose: 200.0 mg/kg/injection, schedule: Q01DX009 (ip), vehicle: distilled water + Tween-80 93 % of control

N=C(N)SC1C=C(O)C=C(c2c(O)c(=O)oc3ccccc23)C1=O (stereo not given)
inactive: [7] 104 % of control | [8] 103 % of control | [9] 88 % of control

Cc1ccccc1-n1c(C)nc2c(cnn2C)c1=O
inactive: [4] 100 % of control | [5] 95 % of control | [6] 97 % of control

O=C(O)C(O)(c1ccccc1)C1CCCC1 (stereo not given)
inactive: [2] 109 % of control | dose: 400.0 mg/kg/injection, schedule: Q01DX009 (ip), vehicle: saline with Tween-80 107 % of control

NNC(=O)COc1ccc(Br)cc1Br
inactive: [15] 95 % of control | [16] 97 % of control

O=CN(CC(=O)O)CC(=O)O
inactive: dose: 50.0 mg/kg/injection, schedule: Q01DX005 (ip), vehicle: saline 100 % of control | dose: 100.0 mg/kg/injection, schedule: Q01DX005 (ip), vehicle: saline 100 % of control | dose: 200.0 mg/kg/injection, schedule: Q01DX005 (ip), vehicle: saline 102 % of control

CC(C)=CCC/C(C)=C/CC/C(C)=C/CS(=O)(=O)c1ccc(C)cc1
inactive: [1] 105 % of control | [2] 105 % of control | [3] 109 % of control

FC(F)(F)c1cc([C@H]2[C@@H]3CCCCN32)c2cccc(C(F)(F)F)c2n1 (stereo not given in full)
inactive: dose: 12.5 mg/kg/injection, schedule: Q04DX003 (ip), vehicle: distilled water + Tween-80 93 % of control | dose: 25.0 mg/kg/injection, schedule: Q04DX003 (ip), vehicle: distilled water + Tween-80 97 % of control | dose: 50.0 mg/kg/injection, schedule: Q04DX003 (ip), vehicle: distilled water + Tween-80 96 % of control | dose: 100.0 mg/kg/injection, schedule: Q04DX003 (ip), vehicle: distilled water + Tween-80 95 % of control | dose: 200.0 mg/kg/injection, schedule: Q04DX003 (ip), vehicle: distilled water + Tween-80 99 % of control | dose: 400.0 mg/kg/injection, schedule: Q04DX003 (ip), vehicle: distilled water + Tween-80 103 % of control

COc1cc(C=Nc2ccc3c(c2)OCO3)cc(OC)c1OC
inactive: [15] 103 % of control | [16] 100 % of control | [17] 86 % of control

COC(=O)C(Cc1cnc2nc(N)nc(N)c2n1)C(=O)OC
inactive: [18] 104 % of control | [19] 104 % of control | [20] 122 % of control
